Reference: patent US8940756B2, “Dihydronaphthyridines and related compounds useful as kinase inhibitors for the treatment of proliferative diseases” (Deciphera Pharmaceuticals, Inc., priority 2012, dated 2015)

Key:
[1] = target: T1, c-KIT V654A kinase (Seq ID no. 2) (Homo sapiens, UniProt P10721, V654A); test: c-KIT V654A Kinase Assay; type: biochemical; settings: enzymatic assay, ATP 200 μM
T1 construct: V654A c-Kit (residues T544-V976 with N-terminal GST fusion, 47 nM); purchased deCODE Biostructures
Description: In this assay, the oxidation of NADH (measured by decrease in absorbance at 340 nm) was continuously monitored spectrophotometrically. […] The inhibition reaction was started by mixing serial diluted test compound with the above reaction mixture. The absorption at 340 nm was monitored continuously for 6 hours at 30° C. on Synergy 2 plate reader (BioTech).
The protein construct was prepared by deCODE Biostructures using procedures known in the art. The construct contains residues T544-V976 of cKit, an N-terminal tag, a GST-fusion sequence and a TEV cleavage site. This construct is identical to Seq ID no.

[2] = target: T2, c-KIT T670I kinase (Seq ID no. 6) (Homo sapiens, UniProt P10721, T670I); test: c-KIT T670I Kinase Assay; type: biochemical; settings: enzymatic assay, ATP 200 uM
T2 construct: GST (N); TEV cleavage site (N); purchased deCODE Biostructures

[3] = target: T3, c-KIT D816H kinase (Seq ID no. 3) (Homo sapiens, UniProt P10721, D816H); test: c-KIT D816H Kinase Assay; type: biochemical; settings: enzymatic assay, ATP 200 μM
T3 construct: GST (N); TEV cleavage site (N); purchased deCODE Biostructures

[4] = target: T4, c-KIT D816V kinase (Seq ID no. 4) (Homo sapiens, UniProt P10721, D816V); test: c-KIT D816V kinase Assay; type: biochemical; settings: enzymatic assay, ATP 200 uM
T4 construct: D816V c-KIT (residues T544-V976 with N-terminal GST fusion, 16 nM); purchased deCODE Biostructures

[5] = target: Phospho-KIT (Tyr719) in GIST48 cells (Homo sapiens, UniProt P10721); test: GIST48 KIT Western Blot; type: cell-based; settings: 4 hours, read-out: pKIT suppression by western blot analysi GIST48
[6] = target: T5, c-KIT kinase (Seq ID no. 1) (Homo sapiens, UniProt P10721); test: c-KIT Kinase Assay (pyruvate kinase/lactate dehydrogenase coupled); type: biochemical; settings: enzymatic assay, ATP 200 μM; read-out: KIT (wt)
T5 construct: GST (N); TEV cleavage site (N); purchased deCODE Biostructures

[7] = target: T6, Phospho-KIT (Tyr719) in GIST882 cells (Homo sapiens, UniProt P10721, K642E); test: GIST882 KIT Western Blot; type: cell-based; settings: 4 hours, read-out: pKIT suppression by western blot analysi GIST 882
T6 construct: endogenous in cells; host or cells: GIST882
Description: GIST48, GIST430, and GIST882 cells were obtained from J. Fletcher (Brigham and Women's Hospital, Boston, Mass.). GIST T1 cells were obtained from B. Rubin (Cleveland Clinic, Cleveland, Ohio) and Professor Takahiro Taguchi (Kochi Medical School, Nankoku, Kochi, Japan). […] GIST430 cells were grown in Ham's F10 medium supplemented with 15% characterized fetal bovine serum (Invitrogen, Carlsbad, Calif.), 30 mg/L bovine pituitary extract (BD Biosciences, San Jose, Calif.), 0.5% Mito+ serum extender (BD Biosciences, San Jose, Calif.), 1 unit/mL penicillin G, 1 μg/ml streptomycin, and 0.29 mg/mL L-glutamine at 37° C., 5% CO2, 95% humidity. GIST T1 cells were grown in DMEM medium supplemented with 10% characterized fetal bovine serum (Invitrogen, Carlsbad, Calif.), 1 unit/mL penicillin G, 1 ng/ml streptomycin, and 0.29 mg/mL L-glutamine at 37° C., 5% CO2, and 95% humidity. Cells were allowed to expand until reaching 70-95% confluence at which point they were subcultured or harvested for assay use.
Two hundred fifty thousand cells were added per well in a 24-well tissue-culture treated plate. Cells were then incubated overnight at 37° C., 5% CO2, 95% humidity. Medium was aspirated, cells were washed with PBS, and serum-free RPMI1640 medium was added. A serial dilution of test compound was added to plates containing cells and plates were incubated for 4 hours at 37° C., 5% CO2, 95% humidity. Cells were washed with PBS, then lysed. Cell lysates were separated by SDS-PAGE and transferred to PVDF. Phospho-KIT (Tyr719) was detected using an antibody from Cell Signaling Technology (Beverly, Mass.), ECL Plus detection reagent (GE Healthcare, Piscataway, N.J.) and a Molecular Devices Storm 840 phosphorimager in fluorescence mode. Blots were stripped and probed for total KIT using an antibody from Santa Cruz Biotech (Santa Cruz, Calif.). IC50 values were calculated using Prism software (Graphpad, San Diego, Calif.).

T6 sequence (P10721 26-976 K642E): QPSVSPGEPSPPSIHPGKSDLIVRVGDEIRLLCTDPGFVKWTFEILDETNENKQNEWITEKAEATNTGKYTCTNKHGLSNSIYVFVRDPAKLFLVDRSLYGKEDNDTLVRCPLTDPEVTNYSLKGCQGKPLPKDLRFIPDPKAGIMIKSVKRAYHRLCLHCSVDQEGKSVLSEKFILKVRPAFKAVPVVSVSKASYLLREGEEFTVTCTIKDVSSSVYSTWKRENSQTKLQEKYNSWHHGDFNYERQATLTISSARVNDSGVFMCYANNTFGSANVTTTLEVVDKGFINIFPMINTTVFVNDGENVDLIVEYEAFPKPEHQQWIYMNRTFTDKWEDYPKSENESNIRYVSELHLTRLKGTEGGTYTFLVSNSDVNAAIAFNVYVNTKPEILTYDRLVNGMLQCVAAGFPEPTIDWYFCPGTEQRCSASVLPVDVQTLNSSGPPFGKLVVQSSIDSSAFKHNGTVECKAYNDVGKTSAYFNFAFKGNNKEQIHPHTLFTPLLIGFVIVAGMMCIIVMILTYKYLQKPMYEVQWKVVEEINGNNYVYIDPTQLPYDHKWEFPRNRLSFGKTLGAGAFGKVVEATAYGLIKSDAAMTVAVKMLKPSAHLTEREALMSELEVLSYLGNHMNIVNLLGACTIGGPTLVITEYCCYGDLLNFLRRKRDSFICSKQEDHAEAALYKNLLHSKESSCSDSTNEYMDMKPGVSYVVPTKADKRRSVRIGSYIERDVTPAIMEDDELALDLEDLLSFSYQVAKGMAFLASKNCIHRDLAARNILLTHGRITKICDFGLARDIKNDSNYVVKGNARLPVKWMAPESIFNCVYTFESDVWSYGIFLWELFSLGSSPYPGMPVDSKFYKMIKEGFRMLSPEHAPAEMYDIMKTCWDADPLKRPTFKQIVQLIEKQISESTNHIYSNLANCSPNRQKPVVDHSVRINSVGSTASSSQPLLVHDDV
T3 sequence (P10721 544-976 D816H): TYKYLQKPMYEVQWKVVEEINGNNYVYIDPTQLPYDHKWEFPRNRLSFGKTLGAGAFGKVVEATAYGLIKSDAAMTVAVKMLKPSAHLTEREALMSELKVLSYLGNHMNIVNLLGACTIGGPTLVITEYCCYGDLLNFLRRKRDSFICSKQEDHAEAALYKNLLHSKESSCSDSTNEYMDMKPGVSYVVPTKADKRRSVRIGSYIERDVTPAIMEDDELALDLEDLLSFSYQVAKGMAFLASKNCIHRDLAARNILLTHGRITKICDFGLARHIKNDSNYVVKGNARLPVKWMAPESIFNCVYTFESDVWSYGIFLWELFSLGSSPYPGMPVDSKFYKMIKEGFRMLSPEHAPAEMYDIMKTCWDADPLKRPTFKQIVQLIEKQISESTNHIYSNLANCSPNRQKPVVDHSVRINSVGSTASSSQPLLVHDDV
T5 sequence (P10721 with tags, fused parts or gaps): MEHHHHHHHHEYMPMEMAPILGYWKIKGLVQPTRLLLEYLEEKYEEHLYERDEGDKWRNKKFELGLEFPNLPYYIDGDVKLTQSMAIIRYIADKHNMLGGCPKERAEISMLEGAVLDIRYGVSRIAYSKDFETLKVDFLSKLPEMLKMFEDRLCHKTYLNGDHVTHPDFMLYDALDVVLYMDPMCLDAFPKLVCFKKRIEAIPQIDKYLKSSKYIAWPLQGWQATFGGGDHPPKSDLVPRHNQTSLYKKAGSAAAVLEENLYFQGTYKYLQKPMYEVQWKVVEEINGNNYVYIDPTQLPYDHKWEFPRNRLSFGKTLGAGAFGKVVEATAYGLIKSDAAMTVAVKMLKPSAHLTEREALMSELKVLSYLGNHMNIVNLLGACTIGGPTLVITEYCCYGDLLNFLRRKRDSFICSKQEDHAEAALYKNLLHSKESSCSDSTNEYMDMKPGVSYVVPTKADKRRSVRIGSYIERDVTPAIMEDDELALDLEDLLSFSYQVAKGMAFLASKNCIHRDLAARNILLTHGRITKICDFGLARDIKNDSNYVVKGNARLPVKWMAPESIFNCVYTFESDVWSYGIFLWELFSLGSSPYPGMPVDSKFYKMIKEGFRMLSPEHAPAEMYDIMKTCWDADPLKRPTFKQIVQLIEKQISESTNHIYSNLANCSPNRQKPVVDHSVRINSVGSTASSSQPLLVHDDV
Sequence of Phospho-KIT (Tyr719) in GIST48 cells (P10721 whole entry V560D/D820A, form open): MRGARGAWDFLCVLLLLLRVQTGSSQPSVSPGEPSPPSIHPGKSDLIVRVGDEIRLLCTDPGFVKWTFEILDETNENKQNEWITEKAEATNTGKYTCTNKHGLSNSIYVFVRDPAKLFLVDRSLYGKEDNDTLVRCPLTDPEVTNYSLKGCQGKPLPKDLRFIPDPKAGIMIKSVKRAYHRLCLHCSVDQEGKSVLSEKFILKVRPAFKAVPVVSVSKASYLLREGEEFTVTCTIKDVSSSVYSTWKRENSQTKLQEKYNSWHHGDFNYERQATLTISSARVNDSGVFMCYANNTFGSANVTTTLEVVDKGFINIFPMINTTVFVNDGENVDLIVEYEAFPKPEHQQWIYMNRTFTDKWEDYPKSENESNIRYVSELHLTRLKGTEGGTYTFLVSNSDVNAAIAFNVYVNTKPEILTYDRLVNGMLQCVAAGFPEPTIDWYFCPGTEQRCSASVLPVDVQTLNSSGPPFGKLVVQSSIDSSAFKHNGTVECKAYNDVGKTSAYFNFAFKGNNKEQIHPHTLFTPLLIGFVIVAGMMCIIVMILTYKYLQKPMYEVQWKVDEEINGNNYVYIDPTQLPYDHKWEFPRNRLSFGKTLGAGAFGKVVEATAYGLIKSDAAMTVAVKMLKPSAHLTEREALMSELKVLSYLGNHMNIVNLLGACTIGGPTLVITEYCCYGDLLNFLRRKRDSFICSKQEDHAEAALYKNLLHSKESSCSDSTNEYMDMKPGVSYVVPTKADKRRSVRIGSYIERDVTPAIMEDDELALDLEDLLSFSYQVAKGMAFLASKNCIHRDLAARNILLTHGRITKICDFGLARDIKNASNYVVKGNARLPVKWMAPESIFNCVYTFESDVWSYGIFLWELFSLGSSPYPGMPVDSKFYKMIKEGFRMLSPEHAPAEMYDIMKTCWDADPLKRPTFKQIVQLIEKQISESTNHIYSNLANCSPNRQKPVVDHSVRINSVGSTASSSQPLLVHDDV
T2 sequence (P10721 544-976 T670I): as the sequence (P10721 544-976 D816H) above, with T127I, H273D counted along it
T4 sequence (P10721 544-976 D816V): as the sequence (P10721 544-976 D816H) above, with H273V counted along it
T1 sequence (P10721 544-976 V654A): as the sequence (P10721 544-976 D816H) above, with V111A, H273D counted along it

Row | IC50 [1] | IC50 [2] | IC50 [3] | IC50 [4] | IC50 [5] | IC50 [6] | IC50 [7] | SMILES
1 | < 10 nM | < 10 nM | < 10 nM | 10 to 100 nM | 10 to 100 nM | < 10 nM | 10 to 100 nM | CCn1c(=O)c(-c2cc(NC(=O)Nc3ccccc3)c(F)cc2Cl)cc2cnc(N)cc21 [Example 21, 1-(5-(7-amino-1-ethyl-2-oxo-1,2-dihydro-1,6-naphthyridin-3-yl)-4-chloro-2-fluorophenyl)-3-phenylurea]
2 | 100 to 1000 nM | 10 to 100 nM | 10 to 100 nM | 100 to 1000 nM | 10 to 100 nM | < 10 nM | > 1000 nM | CCn1c(=O)c(-c2cc(NC(=O)Nc3cccc(CN4CCN(C)CC4)c3)c(F)cc2Cl)cc2cnc(NC)cc21 [Example 79, 1-(4-chloro-5-(1-ethyl-7-(methylamino)-2-oxo-1,2-dihydro-1,6-naphthyridin-3-yl)-2-fluorophenyl)-3-(3-((4-methylpiperazin-1-yl)methyl)phenyl)urea]
3 | 10 to 100 nM | 10 to 100 nM | 10 to 100 nM | 100 to 1000 nM | 10 to 100 nM | < 10 nM | 100 to 1000 nM | CCn1c(=O)c(-c2cc(NC(=O)Nc3cc(F)cc(CN4CCN(C)CC4)c3)c(F)cc2Cl)cc2cnc(NC)cc21 [Example 88, 1-(4-chloro-5-(1-ethyl-7-(methylamino)-2-oxo-1,2-dihydro-1,6-naphthyridin-3-yl)-2-fluorophenyl)-3-(3-fluoro-5-((4-methylpiperazin-1-yl)methyl)phenyl)urea]
